Test: gradient 5% acetonitrile 3 min, to 50% in 2 min, to 85% in 15 min, held 3 min, 100 µL/min
Conditions: column: Zorbax Extend-C18 2.1 x 50 mm; eluents: water / acetonitrile, 0.1% formic acid
How it was run: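 In both positive and negative ionization mode, a quadrupole time-of-flight mass spectrometer coupled to HPLC analyzed pure standards run in mixtures of ~100 molecules. The Zorbax Extend-C18 column (2.1 × 50 mm, 1.8 μm) was operated at 100 μL/min with water and acetonitrile, each containing 0.1% formic acid. The dead volume was 40 μL and the dwell volume 900 μL. Retention time came from adduct peaks that were computationally picked and individually inspected by hand.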

| SMILES | RP-LC retention time |
| --- | --- |
| CN(C)CCCNC(=O)Cn1c(=O)n(-c2ccccc2)c2ncccc21 | 592 s |
| Cc1nc2cc(-c3noc(-c4ccccn4)n3)ccc2n(C2CCCC2)c1=O | 991 s |
| O=C(NCCc1cn2c(n1)SCC2)C(=O)Nc1ccc(F)cc1 | 542 s |
| CCCc1ccc(S(=O)(=O)N2CCc3nc[nH]c3C2)cc1 | 656 s |
| CC1=C(c2ccc(C)cc2)S(=O)(=O)N=C1N1CCCN(C(=O)CC2CCCC2)CC1 | 910 s |
| Cn1c(=O)sc2cc(S(=O)(=O)N3CCC(C(=O)Nc4ccc5c(c4)OCO5)CC3)ccc21 | 817 s |
| O=C(Cn1c(=O)cc(C(=O)N2CCCC2)c2ccccc21)Nc1cc(F)ccc1F | 737 s |
| Fc1ccccc1-c1nc(-c2ccc3c(c2)ncn3CCN2CCOCC2)no1 | 627 s |
| CC(C)c1nc2cccnc2n1CCN1CCN(C(=O)Nc2ccccc2Cl)CC1 | 607 s |
| Cc1oc2c(c1C(=O)Nc1cccc(Br)c1)C1=NCCN1C=N2 | 643 s |
| CCc1cc2c(N3CCCC(C(=O)N(C)C)C3)nccc2s1 (configuration not stated) | 640 s |
| O=C(c1ccc(CS(=O)(=O)c2ccc(Br)cc2)o1)N1CCN(c2ccccn2)CC1 | 616 s |
| CCOC(=O)CCC(=O)Nc1ccc(S(=O)(=O)N2CCc3ccccc32)cc1 | 834 s |
| CCc1ccc(S(=O)(=O)N2CCc3c(c(-c4nc(C5CC5)no4)nn3C)C2)cc1 | 1020 s |
| COc1ccc(OC)c(C(C)NC(=O)CCc2ccc3nc[nH]c3c2)c1 (configuration not stated) | 613 s |
| Nc1ccc(/C=C/c2ccc3ncccc3c2)cc1 | 643 s |
| O=C(c1ccc(-c2ccc3c(c2)CCN3S(=O)(=O)c2ccccc2)cc1)N1CCOCC1 | 885 s |
| Cn1c(=O)n(CC(=O)N2CCc3ccccc3C2)c(=O)c2cnc(-c3ccc(Cl)cc3)nc21 | 1140 s |
| CCOC(=O)c1ccc(N2C(=O)c3n[nH]c(C)c3C2c2ccc(OC)cc2OC)cc1 (configuration not stated) | 878 s |

| SMILES | RP-LC retention time |
| --- | --- |
| COc1cccc(N2CCN(CC(=O)N3CCC(C(N)=O)CC3)CC2)c1 | 582 s |
| O=C(Cn1cnc(-c2ccc(Cl)cc2)cc1=O)NCc1cccnc1 | 568 s |
| CCN1CCN(C(=O)c2cn(-c3ccc(-c4nc(C(C)(C)C)no4)cn3)cn2)CC1 | 653 s |
| CCC(=O)N1CCC(C2CCN(S(=O)(=O)c3ccccc3)CC2)C1 (configuration not stated) | 788 s |
| Cc1ccc(CN2CCC(C(=O)N3CCCCCCNC(=O)CC3)CC2)s1 | 595 s |
| c1cc2c(cc1-c1nnc(C3CCCC3)o1)OCO2 | 944 s |
| Cc1cc(OCC(=O)NCc2cccs2)nc(-c2ccc(Cl)cc2)n1 | 1050 s |
| COc1ccc(OC)c(-c2[nH]ncc2CN2CC(F)(F)C[C@H]2CN2CCCCCC2)c1 | 578 s |
| CCOC(=O)c1ccccc1NC(=O)Cn1c(=O)c(CCC(=O)NC2CCCC2)nc2ccccc21 | 1130 s |
| O=C(Nc1cccc(Cl)c1)Nc1nccs1 | 870 s |
| CCc1cccc(NC(=O)Nc2cnn(-c3ncc(N(C)C)cn3)c2)c1 | 772 s |
| CNC(=O)c1cccc(Nc2c(-c3ccccc3)nc3cnccn23)c1 | 645 s |
| Cc1nn(C2CCS(=O)(=O)C2)c2nc(-c3ccc(F)cc3)cc(C(=O)N3CCCC3)c12 (configuration not stated) | 779 s |
| CN(C)c1cccc(C(=O)Nc2cccc(-c3nnc4n3CCCC4)c2)c1 | 594 s |
| CC1=C(c2ccc(Cl)cc2)S(=O)(=O)N=C1N1CCCN(C(=O)c2ccco2)CC1 | 823 s |
| COc1ccc(C(=O)Nc2ccc(CC(=O)N3CCOCC3)cc2)c(OC)c1OC | 679 s |
| O=C1CCc2cc(S(=O)(=O)NCCc3ccc(Cl)cc3)cc3c2N1CCC3 | 903 s |
| Cc1cccc(-n2ncc(C(N)=O)c2-n2cccc2)c1 | 775 s |
